Results: patent publication US12336981B2, “Compounds and compositions for the inhibition of NAMPT” (Valo Health, Inc., priority 2010, dated 2025)
Where two headings read alike, the source gives them in different places.

Experiments:
A2780 cells = assay: In-vitro cell proliferation assay (SRB), A2780 cells; type: cell-based; settings: Homo sapiens, A2780, 72 h, A2780 cells, 72 hours, read-out: A2780 IC50
Method in brief: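 Read-out is SRB absorbance at 570 nm on TCA-fixed cells after 72 hours of compound treatment at 37° C. in 5% CO2. Background from a media-only plate is subtracted, and % inhibition is interpolated between two tested concentrations.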

NAMPT = biological target: T1, NAMPT (Homo sapiens, UniProt P43490); assay: Biochemical inhibition assay: NAMPT enzymatic reaction, NMN quantified by mass spectrometry; settings: read-out: Biochem IC50
T1 construct: His tag; host or cells: E. coli
Method in brief: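 Inhibition of E. coli-expressed His-tagged human NAMPT, measured as NMN formation by mass spectrometry after a 30 min room-temperature reaction containing 1 μM NAM, 100 μM PRPP and 2.5 mM ATP.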

T1 sequence (P43490 whole entry): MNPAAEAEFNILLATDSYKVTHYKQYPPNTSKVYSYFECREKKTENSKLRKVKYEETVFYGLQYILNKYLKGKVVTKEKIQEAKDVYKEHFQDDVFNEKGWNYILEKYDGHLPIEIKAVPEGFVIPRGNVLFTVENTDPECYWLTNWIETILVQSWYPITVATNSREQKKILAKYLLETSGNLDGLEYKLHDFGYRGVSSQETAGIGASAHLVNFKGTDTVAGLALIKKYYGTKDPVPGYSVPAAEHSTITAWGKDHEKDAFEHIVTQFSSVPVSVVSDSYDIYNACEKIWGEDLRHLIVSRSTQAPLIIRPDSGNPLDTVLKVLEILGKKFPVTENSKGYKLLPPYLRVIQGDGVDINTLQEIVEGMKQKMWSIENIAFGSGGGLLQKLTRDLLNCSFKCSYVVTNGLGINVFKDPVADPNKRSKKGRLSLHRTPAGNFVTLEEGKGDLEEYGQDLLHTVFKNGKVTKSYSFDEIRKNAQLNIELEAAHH

Compound	IC50 (A2780 cells; SRB) [nM]	IC50 (NAMPT; NAMPT enzymatic assay) [nM]	IC50 (A2780 cells; SRB assay) [nM]	IC50 (NAMPT; NAMPT enzymatic reaction) [nM]
O=C(NCc1ccc(S(=O)(=O)c2ccc(F)cc2C(F)(F)F)cc1)c1cnc2[nH]ncc2c1 [N-[(4-{[4-fluoro-2-(trifluoromethyl)benzene]sulfonyl}phenyl)methyl]-1H-pyrazolo[3,4-b]pyridine-5-carboxamide]	109	112	–	–
O=C(NCc1ccc(S(=O)(=O)c2ccc(C(F)(F)F)c(Cl)c2)cc1)c1ccc2nccn2c1	1.2	2.9	–	–
O=C(NCc1ccc(S(=O)(=O)Nc2cccc3c2CCCC3)cc1)c1cc2cnccc2[nH]1 [N-({4-[(5,6,7,8-tetrahydronaphthalen-1-yl)sulfamoyl]phenyl}methyl)-1H-pyrrolo[3,2-c]pyridine-2-carboxamide]	–	–	> 30000	> 30000
O=C(NCc1ccc(S(=O)(=O)c2cc(F)cc(Cl)c2)cc1)c1cnc2[nH]ncc2c1	6	–	–	13.3
CC(=O)c1ccccc1S(=O)(=O)c1ccc(CNC(=O)c2cc3ccncc3o2)cc1 [N-({4-[(2-acetylbenzene)sulfonyl]phenyl}methyl)furo[2,3-c]pyridine-2-carboxamide]	6.5	–	–	5.7
O=C(NCc1ccc(S(=O)(=O)Nc2ccc3cn[nH]c3c2)cc1)c1cc2cnccc2[nH]1 [N-({4-[(1H-indazol-6-yl)sulfamoyl]phenyl}methyl)-1H-pyrrolo[3,2-c]pyridine-2-carboxamide]	–	–	5440	135
O=C(NCc1ccc(S(=O)(=O)c2ccc(Cl)cc2C(F)(F)F)cc1)c1cc2ccncc2o1	25.4	9.8	–	–
CCC[C@@H](O)c1ccc(S(=O)(=O)c2ccc(CNC(=O)c3cnc4nccn4c3)cc2)cc1	14.2	4.8	–	–
COc1ccc(S(=O)(=O)c2ccc(CNC(=O)c3cc4cnccc4[nH]3)cc2)cc1Cl	2.1	–	–	10.7
O=C(NCc1ccc(S(=O)(=O)Nc2ccccc2Oc2ccccc2)cc1)c1cc2cnccc2[nH]1 [N-({4-[(2-phenoxyphenyl)sulfamoyl]phenyl}methyl)-1H-pyrrolo[3,2-c]pyridine-2-carboxamide]	–	–	12000	4020
CCc1cccc(S(=O)(=O)c2ccc(CNC(=O)c3cnc4nccn4c3)cc2)c1	4.1	–	–	3.8
O=C(COc1cccnc1)Nc1ccc(S(=O)(=O)N2CCCCC2)cc1 [N-[4-(piperidine-1-sulfonyl)phenyl]-2-(pyridin-3-yloxy)acetamide]	–	–	6.6	1.1
O=C(NCc1ccc(S(=O)(=O)c2ccc(C(F)(F)F)cc2)cc1)c1cc2cnccc2[nH]1 [N-[(4-{[4-(trifluoromethyl)benzene]sulfonyl}phenyl)methyl]-1H-pyrrolo[3,2-c]pyridine-2-carboxamide]	–	–	26	24
CCOc1cc(S(=O)(=O)c2ccc(CNC(=O)c3cc4ccncc4s3)cc2)ccc1F	3.1	–	–	3.3
CC(C)c1cccc(S(=O)(=O)c2ccc(CNC(=O)c3cc4cnccc4[nH]3)cc2)c1 [N-[(4-{[3-(propan-2-yl)benzene]sulfonyl}phenyl)methyl]-1H-pyrrolo[3,2-c]pyridine-2-carboxamide]	–	–	4	6
O=C(NCc1ccc(S(=O)(=O)c2ccccc2C(F)(F)F)cc1)c1cnc2nccn2c1	100 to 1000	10	–	–
Cc1cc(C)cc(S(=O)(=O)c2ccc(CNC(=O)c3cnc4[nH]ncc4c3)cc2)c1	6.1	–	–	10.4
O=C(NCc1ccc(S(=O)(=O)c2ccc(-n3cccn3)c(F)c2)cc1)c1cc2cnccc2[nH]1 [N-[(4-{[3-fluoro-4-(1H-pyrazol-1-yl)benzene]sulfonyl}phenyl)methyl]-1H-pyrrolo[3,2-c]pyridine-2-carboxamide]	–	–	4	11
O=C(NCc1ccc(S(=O)(=O)c2ccc(C(F)(F)F)cc2C(F)(F)F)cc1)c1cnc2[nH]ncc2c1 [N-[(4-{[2,4-bis(trifluoromethyl)benzene]sulfonyl}phenyl)methyl]-1H-pyrazolo[3,4-b]pyridine-5-carboxamide]	56.2	81.6	–	–
CCNC(=O)c1ccc(S(=O)(=O)c2ccc(CNC(=O)c3cc4ccncc4o3)cc2)cc1	6.7	4.5	–	–
O=C(NCc1ccc(S(=O)(=O)c2cccc3c2OCO3)cc1)c1ccc2nccn2c1 [N-{[4-(2H-1,3-benzodioxole-4-sulfonyl)phenyl]methyl}imidazo[1,2-a]pyridine-6-carboxamide]	13	7.1	–	–
COc1ccc(C(F)(F)F)cc1NS(=O)(=O)c1ccc(CNC(=O)c2cc3cnccc3[nH]2)cc1 [N-[(4-{[2-methoxy-5-(trifluoromethyl)phenyl]sulfamoyl}phenyl)methyl]-1H-pyrrolo[3,2-c]pyridine-2-carboxamide]	–	–	1.6	0.5
CCOc1cccc(S(=O)(=O)c2ccc(CNC(=O)c3cnc4nccn4c3)cc2)c1F	19.7	–	–	4
O=C(NCc1ccc(S(=O)(=O)c2cccnc2N2CCOCC2)cc1)c1cnc2nccn2c1 [N-({4-[2-(morpholin-4-yl)pyridine-3-sulfonyl]phenyl}methyl)imidazo[1,2-a]pyrimidine-6-carboxamide]	100 to 1000	31.2	–	–

Compound	IC50 (A2780 cells; SRB) [nM]	IC50 (NAMPT; NAMPT enzymatic assay) [nM]	IC50 (A2780 cells; SRB assay) [nM]	IC50 (NAMPT; NAMPT enzymatic reaction) [nM]
O=C(NCc1ccc(S(=O)(=O)c2cnn(-c3cccc(Cl)c3)c2)cc1)c1cnc2nccn2c1 [N-({4-[1-(3-chlorophenyl)-1H-pyrazole-4-sulfonyl]phenyl}methyl)imidazo[1,2-a]pyrimidine-6-carboxamide]	11.5	2.2	–	–
CCCOc1ccc(S(=O)(=O)c2ccc(CNC(=O)c3cc4cnccc4[nH]3)cc2)cc1F	10.4	–	–	30.9
Cc1ncccc1S(=O)(=O)c1ccc(CNC(=O)c2cc3cnccc3[nH]2)cc1 [N-{[4-(2-methylpyridine-3-sulfonyl)phenyl]methyl}-1H-pyrrolo[3,2-c]pyridine-2-carboxamide]	24	180	–	–
O=C(NCc1ccc(S(=O)(=O)c2ccccc2CN2CCOCC2)cc1)c1cnc2[nH]ncc2c1	46.5	69.4	–	–
CCc1ccc(S(=O)(=O)c2ccc(CNC(=O)c3ccc4nccn4c3)cc2)cc1 [N-({4-[(4-ethylbenzene)sulfonyl]phenyl}methyl)imidazo[1,2-a]pyridine-6-carboxamide]	7.36	–	–	16.5
CCOc1cc(S(=O)(=O)c2ccc(CNC(=O)c3cc4cnccc4[nH]3)cc2)ccc1F	4.4	–	–	82.4
CCCCOc1ccc(Cl)cc1S(=O)(=O)c1ccc(CNC(=O)c2ccc3nccn3c2)cc1	8	–	–	11
O=C(NCc1ccc(S(=O)(=O)c2c(Cl)cccc2Cl)cc1)c1ccc2nccn2c1	18.8	–	–	1.2
CCCCOc1ccc(S(=O)(=O)c2ccc(CNC(=O)c3cc4ccncc4o3)cc2)cc1F	13.9	–	–	12.3
CCCOc1ccc(S(=O)(=O)c2ccc(CNC(=O)c3ccc4nccn4c3)cc2)c(C)c1	13.3	–	–	9.2
O=C(NCc1ccc(S(=O)(=O)c2cccc(OCC(F)(F)F)c2)cc1)c1cc2ccncc2o1 [N-[(4-{[3-(2,2,2-trifluoroethoxy)benzene]sulfonyl}phenyl)methyl]furo[2,3-c]pyridine-2-carboxamide]	12	7.2	–	–
CCOc1cc(F)ccc1S(=O)(=O)c1ccc(CNC(=O)c2cc3ccncc3o2)cc1	6.9	–	–	7.7
O=C(NCc1ccc(S(=O)(=O)c2cc(C(F)(F)F)ccc2Cl)cc1)c1cc2ccncc2o1	14.1	13.9	–	–
CCCOc1ccc(S(=O)(=O)c2ccc(CNC(=O)c3cc4cnccc4[nH]3)cc2)cc1	6.7	–	–	5.3
Cc1cc(F)cc(S(=O)(=O)c2ccc(CNC(=O)c3cnc4nccn4c3)cc2)c1	5.4	–	–	1.5
COc1cccc(Cl)c1S(=O)(=O)c1ccc(CNC(=O)c2cc3cnccc3[nH]2)cc1 [N-({4-[(2-chloro-6-methoxybenzene)sulfonyl]phenyl}methyl)-1H-pyrrolo[3,2-c]pyridine-2-carboxamide]	–	–	3	13
Cc1cccc(S(=O)(=O)c2ccc(CNC(=O)c3ccc4nccn4c3)cc2)c1F	3.3	–	–	7.5
COc1ccc(S(=O)(=O)c2ccc(CNC(=O)c3cnc4[nH]ncc4c3)cc2)c(C)c1 [N-({4-[(4-methoxy-2-methylbenzene)sulfonyl]phenyl}methyl)-1H-pyrazolo[3,4-b]pyridine-5-carboxamide]	55.5	–	–	29
O=C(NCc1ccc(S(=O)(=O)c2ccccc2)cc1)c1ccc2ccncc2c1 [N-{[4-(benzenesulfonyl)phenyl]methyl}isoquinoline-7-carboxamide]	–	–	24000	219
O=C(NCc1ccc(S(=O)(=O)C2CCCCC2)cc1)c1cc2cnccc2[nH]1 [N-{[4-(cyclohexanesulfonyl)phenyl]methyl}-1H-pyrrolo[3,2-c]pyridine-2-carboxamide]	17.6	5	–	–
O=C(NCc1ccc(S(=O)(=O)c2cccc(OCC(F)(F)F)c2)cc1)c1ccc2nccn2c1	5.9	15	–	–
O=C(NCc1ccc(S(=O)(=O)c2cccc(-n3cccn3)c2)cc1)c1cc2ccncc2o1	9.1	7.5	–	–
Cc1ccc(Cl)c(S(=O)(=O)c2ccc(CNC(=O)c3cc4ccncc4s3)cc2)c1	4.9	–	–	2.2
COc1cc(C(F)(F)F)ccc1S(=O)(=O)c1ccc(CNC(=O)c2cc3cnccc3[nH]2)cc1 [N-[(4-{[2-methoxy-4-(trifluoromethyl)benzene]sulfonyl}phenyl)methyl]-1H-pyrrolo[3,2-c]pyridine-2-carboxamide]	–	–	5	22
